Laboratory results taken from patent US6552080B1, “Fungicidal compounds having a fluorovinyl-or fluoropropenyl-oxyphenyloxime moiety and process for the preparation thereof” (Korea Research Institute of Chemical Technology, priority 1999, dated 2003).

The compounds below were run on Pyricularia oryzae Carvara KA301 (assay: not given). Details: Rice Blast; concentration 2 ppm.
Assay type: in vivo

Compound	RCV (Fungicidal Activities, C.V.) [%]
CCc1ccc(C=C(F)Oc2cccc(C(C)=NOCc3ccccc3C(=NOC)C(=O)NC)c2)cc1 [Compound 79]	99
CCOc1ccc(C=C(F)Oc2cccc(C(C)=NOCc3ccccc3C(=NOC)C(=O)NC)c2)cc1 [Compound 81]	100
COC=C(C(=O)OC)c1ccccc1CON=C(C)c1cccc(OC(F)=C(c2cccc(C)c2)C(F)(F)F)c1 [Compound 151]	93
CO/C=C(/C(=O)OC)c1ccccc1CON=Cc1cccc(OC(F)=Cc2ccccc2)c1 [Compound 1]	71

Same assay, conditions: Rice Blast; concentration 10 ppm

Compound	RCV (Fungicidal Activities, C.V.) [%]
COC=C(C(=O)OC)c1ccccc1CON=C(C)c1cccc(OC(F)=C(c2cccc(C)c2)C(F)(F)F)c1 [Compound 151]	99
CO/C=C(/C(=O)OC)c1ccccc1CON=Cc1cccc(OC(F)=Cc2ccccc2)c1 [Compound 1]	86

Same assay, conditions: Rice Blast; concentration 50 ppm

Compound	RCV (Fungicidal Activities, C.V.) [%]
CCc1ccc(C=C(F)Oc2cccc(C(C)=NOCc3ccccc3C(=NOC)C(=O)NC)c2)cc1 [Compound 79]	100
CCOc1ccc(C=C(F)Oc2cccc(C(C)=NOCc3ccccc3C(=NOC)C(=O)NC)c2)cc1 [Compound 81]	100
COC=C(C(=O)OC)c1ccccc1CON=C(C)c1cccc(OC(F)=C(c2cccc(C)c2)C(F)(F)F)c1 [Compound 151]	100
CO/C=C(/C(=O)OC)c1ccccc1CON=Cc1cccc(OC(F)=Cc2ccccc2)c1 [Compound 1]	100

These compounds were tested on Botrytis cinerae (assay: Fungicidal activity against Cucumber Gray Mold Rot (CGM) disease). Details: Cucumber Gray Mold Rot; concentration 50 ppm.
Assay type: in vivo

Compound	CGM (Fungicidal Activities, C.V.) [%]
CCc1ccc(C=C(F)Oc2cccc(C(C)=NOCc3ccccc3C(=NOC)C(=O)NC)c2)cc1 [Compound 79]	80
CCOc1ccc(C=C(F)Oc2cccc(C(C)=NOCc3ccccc3C(=NOC)C(=O)NC)c2)cc1 [Compound 81]	83
COC=C(C(=O)OC)c1ccccc1CON=C(C)c1cccc(OC(F)=C(c2cccc(C)c2)C(F)(F)F)c1 [Compound 151]	24
CO/C=C(/C(=O)OC)c1ccccc1CON=Cc1cccc(OC(F)=Cc2ccccc2)c1 [Compound 1]	69

These compounds were tested on Phytophthora infestans (assay: not given). Details: Tomato Late Blight; concentration 2 ppm.
Assay type: in vivo

Compound	TLB (Fungicidal Activities, C.V.) [%]
CCc1ccc(C=C(F)Oc2cccc(C(C)=NOCc3ccccc3C(=NOC)C(=O)NC)c2)cc1 [Compound 79]	43
CCOc1ccc(C=C(F)Oc2cccc(C(C)=NOCc3ccccc3C(=NOC)C(=O)NC)c2)cc1 [Compound 81]	12

Same assay, conditions: Tomato Late Blight; concentration 50 ppm

Compound	TLB (Fungicidal Activities, C.V.) [%]
CCc1ccc(C=C(F)Oc2cccc(C(C)=NOCc3ccccc3C(=NOC)C(=O)NC)c2)cc1 [Compound 79]	82
CCOc1ccc(C=C(F)Oc2cccc(C(C)=NOCc3ccccc3C(=NOC)C(=O)NC)c2)cc1 [Compound 81]	64
COC=C(C(=O)OC)c1ccccc1CON=C(C)c1cccc(OC(F)=C(c2cccc(C)c2)C(F)(F)F)c1 [Compound 151]	12
CO/C=C(/C(=O)OC)c1ccccc1CON=Cc1cccc(OC(F)=Cc2ccccc2)c1 [Compound 1]	12

These compounds were tested on Puccinia recondita (assay: Fungicidal activity against Wheat Leaf Rust (WLR) disease). Details: Wheat Leaf Rust; concentration 2 ppm.
Assay type: in vivo

Compound	WLR (Fungicidal Activities, C.V.) [%]
CCc1ccc(C=C(F)Oc2cccc(C(C)=NOCc3ccccc3C(=NOC)C(=O)NC)c2)cc1 [Compound 79]	98
CCOc1ccc(C=C(F)Oc2cccc(C(C)=NOCc3ccccc3C(=NOC)C(=O)NC)c2)cc1 [Compound 81]	99
COC=C(C(=O)OC)c1ccccc1CON=C(C)c1cccc(OC(F)=C(c2cccc(C)c2)C(F)(F)F)c1 [Compound 151]	86
CO/C=C(/C(=O)OC)c1ccccc1CON=Cc1cccc(OC(F)=Cc2ccccc2)c1 [Compound 1]	96

Same assay, conditions: Wheat Leaf Rust; concentration 10 ppm

Compound	WLR (Fungicidal Activities, C.V.) [%]
COC=C(C(=O)OC)c1ccccc1CON=C(C)c1cccc(OC(F)=C(c2cccc(C)c2)C(F)(F)F)c1 [Compound 151]	95
CO/C=C(/C(=O)OC)c1ccccc1CON=Cc1cccc(OC(F)=Cc2ccccc2)c1 [Compound 1]	100

Same assay, conditions: Wheat Leaf Rust; concentration 50 ppm

Compound	WLR (Fungicidal Activities, C.V.) [%]
CCc1ccc(C=C(F)Oc2cccc(C(C)=NOCc3ccccc3C(=NOC)C(=O)NC)c2)cc1 [Compound 79]	100
CCOc1ccc(C=C(F)Oc2cccc(C(C)=NOCc3ccccc3C(=NOC)C(=O)NC)c2)cc1 [Compound 81]	100
COC=C(C(=O)OC)c1ccccc1CON=C(C)c1cccc(OC(F)=C(c2cccc(C)c2)C(F)(F)F)c1 [Compound 151]	100
CO/C=C(/C(=O)OC)c1ccccc1CON=Cc1cccc(OC(F)=Cc2ccccc2)c1 [Compound 1]	100

The compounds below were run on Erysiphae graminis (assay: Fungicidal activity against Barley Powdery Mildew (BPM) disease). Details: Barley Powdery Mildew; concentration 2 ppm.
Assay type: in vivo

Compound	BPM (Fungicidal Activities, C.V.) [%]
CCc1ccc(C=C(F)Oc2cccc(C(C)=NOCc3ccccc3C(=NOC)C(=O)NC)c2)cc1 [Compound 79]	100
CCOc1ccc(C=C(F)Oc2cccc(C(C)=NOCc3ccccc3C(=NOC)C(=O)NC)c2)cc1 [Compound 81]	100
COC=C(C(=O)OC)c1ccccc1CON=C(C)c1cccc(OC(F)=C(c2cccc(C)c2)C(F)(F)F)c1 [Compound 151]	98
CO/C=C(/C(=O)OC)c1ccccc1CON=Cc1cccc(OC(F)=Cc2ccccc2)c1 [Compound 1]	99

Same assay, conditions: Barley Powdery Mildew; concentration 10 ppm

Compound	BPM (Fungicidal Activities, C.V.) [%]
COC=C(C(=O)OC)c1ccccc1CON=C(C)c1cccc(OC(F)=C(c2cccc(C)c2)C(F)(F)F)c1 [Compound 151]	100
CO/C=C(/C(=O)OC)c1ccccc1CON=Cc1cccc(OC(F)=Cc2ccccc2)c1 [Compound 1]	100

Same assay, conditions: Barley Powdery Mildew; concentration 50 ppm

Compound	BPM (Fungicidal Activities, C.V.) [%]
CCc1ccc(C=C(F)Oc2cccc(C(C)=NOCc3ccccc3C(=NOC)C(=O)NC)c2)cc1 [Compound 79]	100
CCOc1ccc(C=C(F)Oc2cccc(C(C)=NOCc3ccccc3C(=NOC)C(=O)NC)c2)cc1 [Compound 81]	100
COC=C(C(=O)OC)c1ccccc1CON=C(C)c1cccc(OC(F)=C(c2cccc(C)c2)C(F)(F)F)c1 [Compound 151]	100
CO/C=C(/C(=O)OC)c1ccccc1CON=Cc1cccc(OC(F)=Cc2ccccc2)c1 [Compound 1]	100

Each compound was assayed on Rhizoctonia solani AG-1 (assay: Fungicidal activity against Rice Sheath Blight (RSB) disease). Details: Rice Sheath Blight; concentration 2 ppm.

Compound	RSB (Fungicidal Activities, C.V.) [%]
CCc1ccc(C=C(F)Oc2cccc(C(C)=NOCc3ccccc3C(=NOC)C(=O)NC)c2)cc1 [Compound 79]	35
CCOc1ccc(C=C(F)Oc2cccc(C(C)=NOCc3ccccc3C(=NOC)C(=O)NC)c2)cc1 [Compound 81]	30
COC=C(C(=O)OC)c1ccccc1CON=C(C)c1cccc(OC(F)=C(c2cccc(C)c2)C(F)(F)F)c1 [Compound 151]	35

Same assay, conditions: Rice Sheath Blight; concentration 10 ppm

Compound	RSB (Fungicidal Activities, C.V.) [%]
COC=C(C(=O)OC)c1ccccc1CON=C(C)c1cccc(OC(F)=C(c2cccc(C)c2)C(F)(F)F)c1 [Compound 151]	55

Same assay, conditions: Rice Sheath Blight; concentration 50 ppm

Compound	RSB (Fungicidal Activities, C.V.) [%]
CCc1ccc(C=C(F)Oc2cccc(C(C)=NOCc3ccccc3C(=NOC)C(=O)NC)c2)cc1 [Compound 79]	65
CCOc1ccc(C=C(F)Oc2cccc(C(C)=NOCc3ccccc3C(=NOC)C(=O)NC)c2)cc1 [Compound 81]	100
COC=C(C(=O)OC)c1ccccc1CON=C(C)c1cccc(OC(F)=C(c2cccc(C)c2)C(F)(F)F)c1 [Compound 151]	95
CO/C=C(/C(=O)OC)c1ccccc1CON=Cc1cccc(OC(F)=Cc2ccccc2)c1 [Compound 1]	65
